In US7977317B2, “Compositions and methods for modulating blood-brain barrier transport” (Raptor Pharmaceutical Inc., priority 2001, dated 2011):

Test system: human brain capillaries
Assay: Accumulation/uptake of [125I]-p97 in isolated human brain capillaries
Assay type: binding
Method: FIG. 5. Accumulation of p97 in human brain capillaries. Accumulation of [^125I]-p97 was measured at 37° C. for 1 h in isolated human brain capillaries (100 μg/assay). The incubation medium contained [^125I]-p97 and a final concentration of 100 nM p97 in Ringer/Hepes solution. The accumulation of [^125I]-p97 was performed in the presence or absence of 5 μm cold-p97, holo-transferrin or lactoferrin. […] The suspension was filtered under vacuum through a […] pore size Millipore filter. The filter was rinsed with 8 ml of stop solution, and the radioactivity was counted. Nonspecific binding of the radioactivity to the capillaries was determined by the addition of the ice-cold stop solution to the capillaries before adding the incubation medium. This value was subtracted from accumulation values obtained following an 1 h incubation. The results were expressed as ng of [^125I]-p97 accumulated per μg of brain capillaries.
FIG. 16 illustrates the identification of a p97 receptor according to ligand specificity. FIG. 16a, Uptake of [^125I]-p97 into human brain capillaries. The uptake of [^125I]-p97 at 100 nM (control) into isolated human brain capillaries was measured for 1 h at 37° C. in the presence of a 50-fold molar excess of unlabelled p97, human holo-transferrin or human lactoferrin. (*[…] Student's t-test (n=5); FIG. 16b, Effect of RAP on [^125I]-p97 transcytosis across BBCEC monolayers. Apical-to-basal transport of [^125I]-p97 was measured in the presence (closed circles) or absence (open circles) of RAP (25 μg/ml) (n=5); FIG. 16c, Inhibition of bovine [^125I]-lactoferrin transport by p97. Transcytosis of bovine [^125I]-lactoferrin (50 nM) was measured in the presence (closed circles) or absence (open circles) of unlabelled p97 (5 μM) at 37° C. (n=3).
A. Isolation of human brain capillaries. Capillaries of the blood-brain barrier were isolated from human brain cortex by a procedure previously described by Dallaire, et al., J. Biol. Chem., 267:22323-22327 (1992) with slight modifications. Human brains were obtained post-mortem. The brain was cleared of meninges, superficial large blood vessels and choroid plexus. All the following procedures were performed at 4° C. The cerebral cortex was homogenized in 5 volumes of Ringer/Hepes solution with a Polytron (Brinkman Instruments, Rexdale, Ontario, Canada). The homogenate was mixed with an equal volume of Dextran T-70 (27 g in 100 ml of Ringer/Hepes). The suspension was centrifuged at 25,000 g for 10 min. The pellet was resuspended in 30 ml of Ringer/Hepes and passed through a 250 μm nylon mesh screen. […]
B. p97 accumulation in human brain capillaries. […] Accumulation of [^125I]-p97 was measured at 37° C. for 1 h in isolated human brain capillaries (100 μg/assay). […]

transferrin: transferrin (Tf), iron-binding serum protein used as comparator and competitor
Inhibition of [125I]-p97 binding/accumulation in human brain capillaries (competitor 5 micromolar, 100 nM p97, 1 h at 37° C. (FIG. 5)): no significant competition | Competition with p97 for receptor binding in human brain capillaries, repeat experiment (performed identically to FIG. 5 (FIG. 6)): not
